Test results: US10689367B2, “Triazole pyridyl compounds as agonists of the APJ receptor” (AMGEN INC., priority 2016, dated 2020)

target: human APJ receptor (Homo sapiens (Human), UniProt P35414); experiment: [35S]GTPγS binding assay on membranes from CHO cells stably expressing human APJ receptor; type: biochemical; details: membranes of CHO cells stably expressing human APJ receptor, read-out: Activity hAPJ SPA EC50 IP
Description: The human APJ receptor was cloned by polymerase chain reaction and the gene encoding the receptor was subcloned in pFLAG-CMV™-3 expression vector (Sigma, Saint Louis, Mo. USA) in-house at Amgen. A GTPγS binding assay was performed on membranes prepared from CHO cells stably expressing human APJ receptor. The optimum experimental conditions for the concentrations of GDP, MgCl2, and NaCl in the assay buffer were initially determined. […] Incubation was at RT for 90 min and the microplate was read using a ViewLux™ ultra HTS Microplate Imager (PerkinElmer, Inc.). All the results presented are means of several independent experiments and analyzed by non-linear regression methods using the commercially available program Prism (GraphPad, San Diego, Calif.) providing the EC50 values detailed in Table 27.

human APJ receptor, sequence (P35414 whole entry): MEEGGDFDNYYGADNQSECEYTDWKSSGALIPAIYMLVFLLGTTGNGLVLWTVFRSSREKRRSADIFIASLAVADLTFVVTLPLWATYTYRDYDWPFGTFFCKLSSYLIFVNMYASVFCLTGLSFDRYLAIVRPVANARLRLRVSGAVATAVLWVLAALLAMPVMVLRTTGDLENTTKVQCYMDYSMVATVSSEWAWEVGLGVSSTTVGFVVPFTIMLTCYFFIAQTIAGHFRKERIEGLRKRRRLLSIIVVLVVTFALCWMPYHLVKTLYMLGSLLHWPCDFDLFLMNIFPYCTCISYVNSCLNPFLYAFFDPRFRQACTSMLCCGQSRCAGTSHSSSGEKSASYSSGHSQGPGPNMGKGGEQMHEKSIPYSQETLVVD

SMILES | EC50
COc1cccc(-c2nnc(NS(=O)(=O)[C@@H](C)[C@H](C)c3ncc(Cl)cn3)n2[C@@H](C)c2c(C)noc2C)n1 (racemic) [Example 313.0, (2S,3R)-3-(5-chloropyrimidin-2-yl)-N-(4-((R)-1-(3,5-dimethylisoxazol-4-yl)ethyl)-5-(6-methoxypyridin-2-yl)-4H-1,2,4-triazol-3-yl)butane-2-sulfonamide or (2S,3R)-3-(5-chloropyrimidin-2-yl)-N-(4-((S)-1-(3,5-dimethylisoxazol-4-yl)ethyl)-5-(6-methoxypyridin-2-yl)-4H-1,2,4-triazol-3-yl)butane-2-sulfonamide] | 21 nM
COc1cccc(-c2nnc(NS(=O)(=O)[C@@H](C)[C@H](OC)c3ncc(Cl)cn3)n2[C@H](C)c2cncc(F)c2)n1 (single isomer, unassigned) [Example 348.0, (1R,2S)-1-(5-chloropyrimidin-2-yl)-N-(4-((R)-1-(5-fluoropyridin-3-yl)ethyl)-5-(6-methoxypyridin-2-yl)-4H-1,2,4-triazol-3-yl)-1-methoxypropane-2-sulfonamide or (1R,2S)-1-(5-chloropyrimidin-2-yl)-N-(4-((S)-1-(5-fluoropyridin-3-yl)ethyl)-5-(6-methoxypyridin-2-yl)-4H-1,2,4-triazol-3-yl)-1-methoxypropane-2-sulfonamide] | 1.34 nM
COCCOc1cccc(-c2nnc(NS(=O)(=O)[C@@H](C)[C@H](OC)c3ncc(Cl)cn3)n2C(COC)COC)n1 [Example 42.0] | 17 nM
COc1cccc(-c2nnc(NS(=O)(=O)[C@@H](C)[C@H](OC)c3ncc(Cl)cn3)n2[C@@H]2CC[C@H]2OC)n1 (single isomer, unassigned) [Example 162.0, (1R,2S)-1-(5-Chloropyrimidin-2-yl)-1-methoxy-N-(4-((1R,2R)-2-methoxycyclobutyl)-5-(6-methoxypyridin-2-yl)-4H-1,2,4-triazol-3-yl)propane-2-sulfonamide or (1R,2S)-1-(5-chloropyrimidin-2-yl)-1-methoxy-N-(4-((1S,2S)-2-methoxycyclobutyl)-5-(6-methoxypyridin-2-yl)-4H-1,2,4-triazol-3-yl)propane-2-sulfonamide] | 2.8 nM
COc1cc(Cn2c(NS(=O)(=O)[C@@H](C)[C@H](OC)c3ncc(Cl)cn3)nnc2-c2cccc(OC)n2)on1 [Example 197.0, (1R,2S)-1-(5-chloro-2-pyrimidinyl)-1-methoxy-N-(4-((3-methoxy-1,2-oxazol-5-yl)methyl)-5-(6-methoxy-2-pyridinyl)-4H-1,2,4-triazol-3-yl)-2-propanesulfonamide] | 12 nM
COc1cccc(-c2nnc(NS(=O)(=O)[C@@H](C)[C@H](OC)c3ncc(Cl)cn3)n2[C@@H]2[C@@H](OC)CCC[C@H]2OC)n1 [Example 185.0, (1R,2S)-1-(5-chloro-2-pyrimidinyl)-N-(4-((1r,2R,6 S)-2,6-dimethoxycyclohexyl)-5-(6-methoxy-2-pyridinyl)-4H-1,2,4-triazol-3-yl)-1-methoxy-2-propanesulfonamide] | 7.2 nM
COCC1(n2c(NS(=O)(=O)[C@@H](C)[C@H](OC)c3ncc(Cl)cn3)nnc2-c2cccc(OC)n2)CC1 [Example 4.0] | 0.16 nM
COC[C@@H](C)n1c(NS(=O)(=O)[C@@H](C)[C@H](OC)c2ncc(Cl)cn2)nnc1-c1cccc(OC)n1 [Example 49.0] | 0.88 nM
COC[C@H](C)n1c(NS(=O)(=O)[C@@H](C)[C@H](C)c2ncc(Cl)cn2)nnc1-c1cccc(OC)n1 [Example 174.0, (2S,3R)-3-(5-chloro-2-pyrimidinyl)-N-(4-((2S)-1-methoxy-2-propanyl)-5-(6-methoxy-2-pyridinyl)-4H-1,2,4-triazol-3-yl)-2-butanesulfonamide] | 3.3 nM
COCC1(n2c(NS(=O)(=O)[C@@H](C)[C@@H](OC(C)C)c3ncc(C)cn3)nnc2-c2cccc(OC)n2)CC1 [Example 64.0] | 0.16 nM
COc1cccc(-c2nnc(NS(=O)(=O)[C@@H](C)[C@@H](OC(C)C)c3ncc(C)cn3)n2[C@@H](C)[C@H]2CCCO2)n1 (single isomer, unassigned) [Example 273.0] | 23 nM
COc1cccc(-c2nnc(NS(=O)(=O)[C@@H](C)[C@H](OC)c3ncc(Cl)cn3)n2CCC#N)n1 [Example 44.0] | 4.9 nM
COc1cccc(-c2nnc(NS(=O)(=O)[C@@H](C)[C@H](OC)c3ncc(C)cn3)n2C2CC2)n1 [Example 120.0] | 24 nM
COc1cccc(-c2nnc(NS(=O)(=O)[C@@H](C)[C@H](OC)c3ncc(Cl)cn3)n2Cc2cc(C)on2)n1 [Example 271.0, (1R,2S)-1-(5-chloropyrimidin-2-yl)-1-methoxy-N-(5-(6-methoxypyridin-2-yl)-4-((5-methylisoxazol-3-yl)methyl)-4H-1,2,4-triazol-3-yl)propane-2-sulfonamide] | 5.4 nM
COc1cccc(-c2nnc(NS(=O)(=O)[C@@H](C)[C@H](OC)c3ncc(Cl)cn3)n2[C@H](C)[C@@H]2CCCCO2)n1 (racemic) [Example 319.0] | 0.44 nM
CC[C@@H](c1c(C)noc1C)n1c(NS(=O)(=O)[C@@H](C)[C@H](OC)c2cnc(C)cn2)nnc1-c1cccc(OC)n1 (single isomer, unassigned) [Example 222.0, (1R,2S)-N-(4-((1S)-1-(3,5-dimethyl-1,2-oxazol-4-yl)propyl)-5-(6-methoxy-2-pyridinyl)-4H-1,2,4-triazol-3-yl)-1-methoxy-1-(5-methyl-2-pyrazinyl)-2-propanesulfonamide or (1R,2S)-N-(4-((1R)-1-(3,5-dimethyl-1,2-oxazol-4-yl)propyl)-5-(6-methoxy-2-pyridinyl)-4H-1,2,4-triazol-3-yl)-1-methoxy-1-(5-methyl-2-pyrazinyl)-2-propanesulfonamide] | 58 nM
COc1cccc(-c2nnc(NS(=O)(=O)[C@@H](C)[C@H](C)c3ncc(Cl)cn3)n2Cc2cc(C(F)(F)F)no2)n1 [Example 204.0, (2S,3R)-3-(5-chloro-2-pyrimidinyl)-N-(5-(6-methoxy-2-pyridinyl)-4-((3-(trifluoromethyl)-1,2-oxazol-5-yl)methyl)-4H-1,2,4-triazol-3-yl)-2-butanesulfonamide] | 21 nM
COc1cccc(-c2nnc(NS(=O)(=O)[C@@H](C)[C@H](OC)c3ncc(Cl)cn3)n2[C@@H](C)c2c(C)noc2C)n1 (racemic) [Example 309.0, (1R,2S)-1-(5-chloropyrimidin-2-yl)-N-(4-((R)-1-(3,5-dimethylisoxazol-4-yl)ethyl)-5-(6-methoxypyridin-2-yl)-4H-1,2,4-triazol-3-yl)-1-methoxypropane-2-sulfonamide or (1R,2S)-1-(5-chloropyrimidin-2-yl)-N-(4-((S)-1-(3,5-dimethylisoxazol-4-yl)ethyl)-5-(6-methoxypyridin-2-yl)-4H-1,2,4-triazol-3-yl)-1-methoxypropane-2-sulfonamide] | 9.2 nM
COc1cccc(-c2nnc(NS(=O)(=O)[C@@H](C)[C@H](C)c3ncc(Cl)cn3)n2Cc2cnoc2)n1 [Example 187.0, (2S,3R)-3-(5-chloropyrimidin-2-yl)-N-(4-(isoxazol-4-ylmethyl)-5-(6-methoxypyridin-2-yl)-4H-1,2,4-triazol-3-yl)butane-2-sulfonamide] | 650 nM
CO[C@H](c1ncc(Cl)cn1)[C@H](C)S(=O)(=O)Nc1nnc(-c2cncc(C)c2)n1C[C@H]1CCCCO1 (mixture of isomers) [Example 299.0, (1R,2S)-1-(5-chloropyrimidin-2-yl)-1-methoxy-N-(5-(5-methylpyridin-3-yl)-4-(((R)-tetrahydro-2H-pyran-2-yl)methyl)-4H-1,2,4-triazol-3-yl)propane-2-sulfonamide and (1R,2S)-1-(5-chloropyrimidin-2-yl)-1-methoxy-N-(5-(5-methylpyridin-3-yl)-4-(((S)-tetrahydro-2H-pyran-2-yl)methyl)-4H-1,2,4-triazol-3-yl)propane-2-sulfonamide] | 120 nM
COc1cccc(-c2nnc(NS(=O)(=O)[C@@H](C)[C@H](C)c3ncc(Cl)cn3)n2CC2COC2)n1 [Example 2.0, (2S,3R)-3-(5-chloro-2-pyrimidinyl)-N-(5-(6-methoxy-2-pyridinyl)-4-(3-oxetanylmethyl)-4H-1,2,4-triazol-3-yl)-2-butanesulfonamide] | > 4200 nM
CC[C@@H](c1conc1C)n1c(NS(=O)(=O)[C@@H](C)[C@H](C)c2ncc(Cl)cn2)nnc1-c1cccc(OC)n1 (single isomer, unassigned) [Example 231.0, (2S,3R)-3-(5-chloro-2-pyrimidinyl)-N-(5-(6-methoxy-2-pyridinyl)-4-((1S)-1-(3-methyl-1,2-oxazol-4-yl)propyl)-4H-1,2,4-triazol-3-yl)-2-butanesulfonamide or (2S,3R)-3-(5-chloro-2-pyrimidinyl)-N-(5-(6-methoxy-2-pyridinyl)-4-((1R)-1-(3-methyl-1,2-oxazol-4-yl)propyl)-4H-1,2,4-triazol-3-yl)-2-butanesulfonamide] | 21 nM
COc1cccc(-c2nnc(NS(=O)(=O)[C@@H](C)[C@H](OC)c3ncc(Cl)cn3)n2C[C@H]2CCC(C)(C)O2)n1 (single isomer, unassigned) [Example 290.0, (1R,2S)-1-(5-chloropyrimidin-2-yl)-N-(4-(((R)-5,5-dimethyltetrahydrofuran-2-yl)methyl)-5-(6-methoxypyridin-2-yl)-4H-1,2,4-triazol-3-yl)-1-methoxypropane-2-sulfonamide or (1R,2S)-1-(5-chloropyrimidin-2-yl)-N-(4-(((S)-5,5-dimethyltetrahydrofuran-2-yl)methyl)-5-(6-methoxypyridin-2-yl)-4H-1,2,4-triazol-3-yl)-1-methoxypropane-2-sulfonamide] | 15 nM
COc1cccc(-c2nnc(NS(=O)(=O)[C@@H](C)[C@H](OC)c3ncc(Cl)cn3)n2C[C@@H]2CCC[C@H](C)O2)n1 (single isomer, unassigned) [Example 308.0] | 1.9 nM
